According to patent publication US20090176811A1, “Substituted 5,6,7,8-Tetrahydro-pyrido[4,3-d]pyrimidine-2-yl Compounds and 5,6,7,8-Tetrahydro-quinazoline-2-yl Compounds” (GRUENENTHAL GmbH, priority 2004, published 2009):

Assays:
[1] = biological target: T1, NA transporter (Rattus norvegicus, UniProt Q63380); experiment: Noradrenalin uptake inhibition in rat brain synaptosomes (hypothalamus); assay type: biochemical
T1 construct: from tissue; host or cells: rat hypothalamus synaptosomes (P2 fraction)
From the text: (§1) I. Method for Determining Noradrenalin and 5-HT Uptake Inhibition:
(§2) Synaptosomes from rat brain regions are freshly isolated for in vitro studies, as described in the publication “The isolation of nerve endings from brain” by E. G. Gray and V. P. Whittaker, J. Anatomy 96, pages 79-88, 1962. The corresponding literature description is hereby introduced as a reference and is deemed to be part of the disclosure.
(§3) The tissue (hypothalamus for the determination of noradrenalin uptake inhibition and medulla and pons for the determination of 5-HT uptake inhibition) is homogenised in ice-cooled 0.32 M sucrose (100 mg of tissue/1 mL) in a glass homogeniser with Teflon pestle using five complete up and down strokes at 840 revolutions/minute.
(§4) The homogenate is centrifuged at 4° C. for 10 minutes at 1000 g. After subsequent centrifugation at 17000 g for 55 minutes, the synaptosomes (P2 fraction) are obtained, which are resuspended in 0.32 M […] (0.5 mL/100 mg of original weight).
(§5) The particular uptake is measured in a 96-well microtitre plate. The volume is 250 μl and the incubation proceeds at room temperature (approx. 20-25° C.) under an O2 atmosphere.
(§6) The incubation time is 7.5 minutes for [^3H]-NA and 5 minutes for [^3H]-5-HT.
(§7) The 96 samples are then filtered through a Unifilter GF/B microtitre plate (Packard) and washed with 200 mL of incubated buffer using a “Brabdel MPXRI-96T Cell-Harvester”. The Unifilter GF/B plate is dried for 1 hour at 55° C. The plate is then sealed with a Back seal (Packard) and 35 μl of scintillation fluid are added per well (Ultima Gold, Packard). After sealing with a top seal (Packard) and establishing an equilibrium (around 5 hours), radioactivity is determined in a “Trilux 1450 Microbeta” (Wallac).
(§8) The quantity of protein used in the above determination corresponds to the values known from the literature, as for example described in “Protein measurement with the folin phenol reagent”, Lowry et al., J. Biol. Chem., 193, 265-275, 1951.
(§9) A detailed description of the method may additionally be found in the literature, for example in M. Ch. Frink, H.-H. Hennies, W. Engelberger, M. Haurand and B. Wilffert (1996) Arzneim.-Forsch./Drug Res. 46 (III), 11, 1029-1036.
(§10) The corresponding literature descriptions are hereby introduced in each case as a reference and are deemed to be part of the present disclosure.
(§11) The following characteristics were determined for the NA or 5-HT transporter: […]

[2] = biological target: T2, 5-HT transporter (Rattus norvegicus, UniProt P31652); experiment: 5-HT uptake inhibition in rat brain synaptosomes (medulla and pons); assay type: biochemical
T2 construct: from tissue; host or cells: rat medulla and pons synaptosomes (P2 fraction)
From the text: as §1, §2, §3, §4, §5, §6, §7, §8, §9, §10, §11

T1 sequence (Q63380 1-617): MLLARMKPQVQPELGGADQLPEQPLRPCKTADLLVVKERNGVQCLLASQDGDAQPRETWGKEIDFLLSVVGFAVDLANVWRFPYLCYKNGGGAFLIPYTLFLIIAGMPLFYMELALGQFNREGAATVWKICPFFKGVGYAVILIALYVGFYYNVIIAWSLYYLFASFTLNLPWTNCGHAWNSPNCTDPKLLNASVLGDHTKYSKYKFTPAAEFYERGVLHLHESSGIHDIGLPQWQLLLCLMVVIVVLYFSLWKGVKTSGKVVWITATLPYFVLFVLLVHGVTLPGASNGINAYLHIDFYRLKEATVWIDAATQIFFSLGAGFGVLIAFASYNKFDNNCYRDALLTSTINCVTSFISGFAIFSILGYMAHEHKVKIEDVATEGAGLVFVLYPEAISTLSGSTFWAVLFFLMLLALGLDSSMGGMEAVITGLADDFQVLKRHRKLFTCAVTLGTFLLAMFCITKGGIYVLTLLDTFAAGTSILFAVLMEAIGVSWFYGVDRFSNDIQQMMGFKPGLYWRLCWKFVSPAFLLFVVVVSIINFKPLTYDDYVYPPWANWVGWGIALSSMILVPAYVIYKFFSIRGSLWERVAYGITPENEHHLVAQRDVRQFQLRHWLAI
T2 sequence (P31652 whole entry): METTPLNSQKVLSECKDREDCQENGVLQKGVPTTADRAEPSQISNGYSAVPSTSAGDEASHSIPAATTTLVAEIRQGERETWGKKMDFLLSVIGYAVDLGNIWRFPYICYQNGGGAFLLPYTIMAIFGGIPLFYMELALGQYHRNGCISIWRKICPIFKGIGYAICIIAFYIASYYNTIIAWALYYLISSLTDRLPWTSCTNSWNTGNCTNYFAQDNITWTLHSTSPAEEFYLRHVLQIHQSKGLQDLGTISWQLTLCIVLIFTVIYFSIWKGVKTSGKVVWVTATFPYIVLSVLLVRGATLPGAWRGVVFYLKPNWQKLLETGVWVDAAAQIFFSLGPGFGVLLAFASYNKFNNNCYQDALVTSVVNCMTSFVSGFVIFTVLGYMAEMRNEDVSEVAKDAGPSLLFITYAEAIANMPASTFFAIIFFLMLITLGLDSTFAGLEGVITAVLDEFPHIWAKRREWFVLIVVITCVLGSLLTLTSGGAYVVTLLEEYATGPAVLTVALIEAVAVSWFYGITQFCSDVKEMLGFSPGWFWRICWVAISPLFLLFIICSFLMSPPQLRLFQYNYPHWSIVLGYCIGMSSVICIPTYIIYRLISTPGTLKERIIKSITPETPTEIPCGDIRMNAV

## Cc1ccc(C(=O)N2CCc3nc(NC(=O)c4ccc(C(C)(C)C)cc4)ncc3C2)cc1[N+](=O)[O-] [Example 92, 4-tert-butyl-N-[6-(4-methyl-3-nitro-benzoyl)-5,6,7,8-tetrahydro-pyrido[4,3-d]pyrimidin-2-yl]-benzamide]
[1]
  inhibition at 10 µM: 35%
[2]
  inhibition at 1 µM: 66%

## Cc1cc(C)c(S(=O)(=O)N2CCc3nc(NC(=O)c4ccc(Cl)c(Cl)c4)ncc3C2)c(C)c1 [Example 95, 3,4-dichloro-N-[6-(2,4,6-trimethyl-benzenesulfonyl)-5,6,7,8-tetrahydro-pyrido[4,3-d]pyrimidin-2-yl]-benzamide]
[1]
  inhibition at 10 µM: 72%
[2]
  inhibition at 1 µM: 59%

## Cc1cc(C)c(C)c(S(=O)(=O)N2CCc3nc(NC(=O)c4cccs4)ncc3C2)c1C [Example 99, thiophene-2-carboxylic acid [6-(2,3,5,6-tetramethyl-benzenesulfonyl)-5,6,7,8-tetrahydro-pyrido[4,3-d]pyrimidin-2-yl]-amide]
[1]
  inhibition at 10 µM: 56%
[2]
  inhibition at 1 µM: 41%

## CCc1ccc(C(=O)Nc2ncc3c(n2)CCN(C(=O)c2ccc(Cl)c(Cl)c2)C3)cc1 [Example 101, N-[6-(3,4-dichloro-benzoyl)-5,6,7,8-tetrahydro-pyrido[4,3-d]pyrimidin-2-yl]-4-ethyl-benzamide]
[1]
  inhibition at 10 µM: 84%
[2]
  inhibition at 1 µM: 65%

## Cc1ccccc1C(=O)N1CCc2nc(NC(=O)c3cccc(Cl)c3)ncc2C1 [Example 109, 3-chloro-N-[6-(2-methyl-benzoyl)-5,6,7,8-tetrahydro-pyrido[4,3-d]pyrimidin-2-yl]-benzamide]
[1]
  inhibition at 10 µM: 92%
[2]
  inhibition at 1 µM: 30%

## O=C(Nc1ncc2c(n1)CCN(C(=O)c1sc3ccccc3c1Cl)C2)c1cccs1 [Example 110, thiophene-2-carboxylic acid [6-(3-chloro-benzo[b]thiophene-2-carbonyl)-5,6,7,8-tetrahydro-pyrido[4,3-d]pyrimidin-2-yl]-amide]
[1]
  inhibition at 10 µM: 75%
[2]
  inhibition at 1 µM: 96%

## CCc1ccc(C(=O)Nc2ncc3c(n2)CCN(S(=O)(=O)c2ccccc2Cl)C3)cc1 [Example 114, N-[6-(2-chloro-benzenesulfonyl)-5,6,7,8-tetrahydro-pyrido[4,3-d]pyrimidin-2-yl]-4-ethyl-benzamide]
[1]
  inhibition at 10 µM: 73%
[2]
  inhibition at 1 µM: 50%

## Cc1cccc(C(=O)Nc2ncc3c(n2)CCN(S(=O)(=O)c2cccc(C)c2)C3)c1 [Example 116, 3-methyl-N-[6-(toluene-3-sulfonyl)-5,6,7,8-tetrahydro-pyrido[4,3-d]pyrimidin-2-yl]-benzamide]
[1]
  inhibition at 10 µM: 52%
[2]
  inhibition at 1 µM: 31%

## O=C(Nc1ncc2c(n1)CCN(S(=O)(=O)c1ccc(Cl)s1)C2)c1cccc2ccccc12 [Example 117, naphthalene-1-carboxylic acid [6-(5-chloro-thiophene-2-sulfonyl)-5,6,7,8-tetrahydro-pyrido[4,3-d]pyrimidin-2-yl]-amide]
[1]
  inhibition at 10 µM: 31%
[2]
  inhibition at 1 µM: 32%

## COc1ccc(C(=O)N2CCc3nc(NC(=O)c4cccc(Cl)c4)ncc3C2)cc1OC [Example 119, 3-chloro-N-[6-(3,4-dimethoxy-benzoyl)-5,6,7,8-tetrahydro-pyrido[4,3-d]pyrimidin-2-yl]-benzamide]
[1]
  inhibition at 10 µM: 72%
[2]
  inhibition at 1 µM: 34%

## O=C(Nc1ncc2c(n1)CCN(C(=O)c1sc3ccccc3c1Cl)C2)c1ccccc1 [Example 120, N-[6-(3-chloro-benzo[b]thiophene-2-carbonyl)-5,6,7,8-tetrahydro-pyrido[4,3-d]pyrimidin-2-yl]-benzamide]
[1]
  inhibition at 10 µM: 78%
[2]
  inhibition at 1 µM: 92%

## CCc1ccc(C(=O)Nc2ncc3c(n2)CCN(S(=O)(=O)c2ccsc2)C3)cc1 [Example 121, 4-ethyl-N-[6-(thiophene-3-sulfonyl)-5,6,7,8-tetrahydro-pyrido[4,3-d]pyrimidin-2-yl]-benzamide]
[1]
  inhibition at 10 µM: 92%
[2]
  inhibition at 1 µM: 52%

## O=C(Nc1ncc2c(n1)CCN(S(=O)(=O)c1cccc(Br)c1)C2)c1cccc(Cl)c1 [Example 125, N-[6-(3-bromo-benzenesulfonyl)-5,6,7,8-tetrahydro-pyrido[4,3-d]pyrimidin-2-yl]-3-chloro-benzamide]
[1]
  inhibition at 10 µM: 70%
[2]
  inhibition at 1 µM: 43%

## O=C(Nc1ncc2c(n1)CCN(C(=O)Cc1ccc(Cl)cc1)C2)c1ccc(Cl)c(Cl)c1 [Example 126, 3,4-dichloro-N-{6-[2-(4-chloro-phenyl)-acetyl]-5,6,7,8-tetrahydro-pyrido[4,3-d]pyrimidin-2-yl}-benzamide]
[1]
  inhibition at 10 µM: 89%
[2]
  inhibition at 1 µM: 55%

## O=C(Nc1ncc2c(n1)CCN(C(=O)c1c(F)cccc1Cl)C2)c1cccc(Cl)c1 [Example 127, 3-chloro-N-[6-(2-chloro-6-fluoro-benzoyl)-5,6,7,8-tetrahydro-pyrido[4,3-d]pyrimidin-2-yl]-benzamide]
[1]
  inhibition at 10 µM: 71%
[2]
  inhibition at 1 µM: 35%

## O=C(Nc1ncc2c(n1)CCN(S(=O)(=O)c1ccc(OC(F)(F)F)cc1)C2)c1ccc(Cl)c(Cl)c1 [Example 134, 3,4-dichloro-N-[6-(4-trifluoromethoxy-benzenesulfonyl)-5,6,7,8-tetrahydro-pyrido[4,3-d]pyrimidin-2-yl]-benzamide]
[1]
  inhibition at 10 µM: 59%
[2]
  inhibition at 1 µM: 58%

## O=C(Nc1ncc2c(n1)CCN(C(=O)C1CCc3ccccc3C1)C2)c1cccc(F)c1 (centres unmarked) [Example 141, 3-fluoro-N-[6-(1,2,3,4-tetrahydro-naphthalene-2-carbonyl)-5,6,7,8-tetrahydro-pyrido[4,3-d]pyrimidin-2-yl]-benzamide]
[1]
  inhibition at 10 µM: 55%
[2]
  inhibition at 1 µM: 54%

## O=C(Nc1ncc2c(n1)CCN(C(=O)c1ccc(-c3cccs3)cc1)C2)c1cc(Cl)cc(Cl)c1 [Example 144, 3,5-dichloro-N-[6-(4-thiophen-2-yl-benzoyl)-5,6,7,8-tetrahydro-pyrido[4,3-d]pyrimidin-2-yl]-benzamide]
[1]
  inhibition at 10 µM: 67%
[2]
  inhibition at 1 µM: 42%

## CCc1ccc(C(=O)Nc2ncc3c(n2)CCN(S(=O)(=O)c2ccc4c(c2)CN(C(=O)C(F)(F)F)CC4)C3)cc1 [Example 157, 4-ethyl-N-{6-[2-(2,2,2-trifluoro-acetyl)-1,2,3,4-tetrahydro-isoquinoline-7-sulfonyl]-5,6,7,8-tetrahydro-pyrido[4,3-d]pyrimidin-2-yl}-benzamide]
[1]
  inhibition at 10 µM: 61%
[2]
  inhibition at 1 µM: 43%

## COc1ccccc1C(=O)Nc1ncc2c(n1)CCN(S(=O)(=O)c1c(C)cc(OC)c(C)c1C)C2 [Example 158, 2-methoxy-N-[6-(4-methoxy-2,3,6-trimethyl-benzenesulfonyl)-5,6,7,8-tetrahydro-pyrido[4,3-d]pyrimidin-2-yl]-benzamide]
[1]
  inhibition at 10 µM: 36%
[2]
  inhibition at 1 µM: 55%

## O=C(Nc1ncc2c(n1)CCN(C(=O)C1=Cc3ccccc3OC1)C2)c1ccc(F)c(F)c1 [Example 175, N-[6-(2H-chromene-3-carbonyl)-5,6,7,8-tetrahydro-pyrido[4,3-d]pyrimidin-2-yl]-3,4-difluoro-benzamide]
[1]
  inhibition at 10 µM: 46%
[2]
  inhibition at 1 µM: 32%

## CC(C)(C)c1ccc(C(=O)Nc2ncc3c(n2)CCN(C(=O)c2csc4ccccc24)C3)cc1 [Example 184, N-[6-(benzo[b]thiophene-3-carbonyl)-5,6,7,8-tetrahydro-pyrido[4,3-d]pyrimidin-2-yl]-4-tert-butyl-benzamide]
[1]
  inhibition at 10 µM: 69%
[2]
  inhibition at 1 µM: 48%

## CC(C)(C)c1ccc(C(=O)Nc2ncc3c(n2)CCN(S(=O)(=O)c2ccc4c(c2)OCCO4)C3)cc1 [Example 186, 4-tert-butyl-N-[6-(2,3-dihydro-benzo[1,4]dioxin-6-sulfonyl)-5,6,7,8-tetrahydro-pyrido[4,3-d]pyrimidin-2-yl]-benzamide]
[1]
  inhibition at 10 µM: 82%
[2]
  inhibition at 1 µM: 46%

## O=C(Nc1ncc2c(n1)CCN(C(=O)Cc1c(Cl)cccc1Cl)C2)c1cccc(Cl)c1 [Example 187, 3-chloro-N-{6-[2-(2,6-dichloro-phenyl)-acetyl]-5,6,7,8-tetrahydro-pyrido[4,3-d]pyrimidin-2-yl}-benzamide]
[1]
  inhibition at 10 µM: 100%
[2]
  inhibition at 1 µM: 29%

## O=C(Nc1ncc2c(n1)CCN(C(=O)CCCCc1ccccc1)C2)c1ccccc1 [Example 190, N-[6-(5-phenyl-pentanoyl)-5,6,7,8-tetrahydro-pyrido[4,3-d]pyrimidin-2-yl]-benzamide]
[1]
  inhibition at 10 µM: 73%
[2]
  inhibition at 1 µM: 36%
